Experimental data: patent publication US20250268826A1, “IONIZABLE LIPIDOID COMPOSITIONS AND THERAPEUTIC USES THEREOF” (Flagship Pioneering Innovations VII, LLC, priority 2023, published 2025)
Like-named read-outs stand apart in the source and are kept apart here.

Columns and labels:
Format in all cases: physicochemical
[1] = LNP size and polydispersity index (PDI) by dynamic light scattering (DLS); settings: for Size: LNP Lipid:DSPC:Cholesterol:DMG-PEG2k 50:10:38.5:1.5 mol %
[2] = LNP Zeta potential measured using a Zetasizer (Malvern); settings: for Zeta potential (mV): LNP with hEPO mRNA, N:P ratio 6; for Zeta potential: LNP 50:10:38.5:1.5 mol %, hEPO mRNA, N:P 6
[3] = Encapsulation efficiency (EE %) by fluorescence based Ribogreen assay
[4] = Table 10, LNP with hEPO mRNA, Lipid:DSPC:Cholesterol:DMG-PEG2k 50:10:38.5:1.5 mol %, N:P ratio 6, DLS
[5] = Table 10, Lipid:DSPC:Cholesterol:DMG-PEG2k 50:10:38.5:1.5 mol %
[6] = Table 10, LNP with hEPO mRNA, Lipid:DSPC:Cholesterol:DMG-PEG2k 50:10:38.5:1.5 mol %, N:P ratio 6, Ribogreen assay
[7] = Table 8, LNP 50:10:38.5:1.5 mol %, hEPO mRNA, N:P 6
[8] = Table 9, LNP 50:10:38.5:1.5 mol %, hEPO mRNA, N:P 6
[9] = Table 11, Lipid:DSPC:Cholesterol:DMG-PEG2k 50:10:38.5:1.5 mol % (ALC-0315: 46.3:9.4:42.7:1.6), HEPES/sodium chloride/sucrose buffer, stored at −80C
[10] = Table 11, LNP with hEPO mRNA, Lipid:DSPC:Cholesterol:DMG-PEG2k 50:10:38.5:1.5 mol % (ALC-0315: 46.3:9.4:42.7:1.6), N:P ratio 6, HEPES/sodium chloride/sucrose buffer, stored at −80C

Compound | PDI [1, 7] | Size ([1]; Table 8, hEPO mRNA, N:P 6) [nm] | Zeta potential ([2]; Table 8) [mV] | Encapsulation Efficiency % [3, 7] [%] | PDI [1, 8] | Size ([1]; Table 9, hEPO mRNA, N:P 6) [nm] | Zeta potential ([2]; Table 9) [mV] | Encapsulation Efficiency % [3, 8] [%] | other results
CCCCCCCCCC(CCCCCCCCC)C(=O)OCCN(CCOC(=O)C(CCCCCCCCC)CCCCCCCCC)C(=O)CCN(CC)CC [Compound 917f] | – | – | – | – | – | – | – | – | PDI [1, 4]: 0.314; Size (nm) [1, 4]: 51.5 nm; Zeta potential (mV) [2, 5]: −11.1 mV; Encapsulation Efficiency % [3, 6]: 91.9%
CCCCCCCCCC(CCCCCCCCC)C(=O)OCCN(CCOC(=O)C(CCCCCCCCC)CCCCCCCCC)C(=O)CCN(C)CCC [Compound 917g] | – | – | – | – | – | – | – | – | PDI [1, 4]: 0.281; Size (nm) [1, 4]: 49.2 nm; Zeta potential (mV) [2, 5]: −10.2 mV; Encapsulation Efficiency % [3, 6]: 93.5%
CCCCCCCC/C=C\CCCCCCCC(=O)OCCN(CCOC(=O)C(CCCCCC)CCCCCCCC)C(=O)CCN1CCCCC1 (centres unmarked) [Compound 917h] | – | – | – | – | – | – | – | – | PDI [1, 4]: 0.137; Size (nm) [1, 4]: 89.6 nm; Zeta potential (mV) [2, 5]: −8.2 mV; Encapsulation Efficiency % [3, 6]: 91.4%
CCCCCCCCC(CCCCCC)C(=O)OCCN(CCOC(=O)C(CCCCCC)CCCCCCCC)C(=O)C(C)CNC.Cl (centres unmarked) [Compound 924] | 0.142 | 87.2 | −8.7 | 99.9 | – | – | – | – | –
CCCCCCCCC(CCCCCC)C(=O)OCCN(CCOC(=O)C(CCCCCC)CCCCCCCC)C(=O)C(C)CNCC.Cl (centres unmarked) [Compound 925] | 0.146 | 79.6 | −6.1 | 99.9 | – | – | – | – | –
CCCCCCCCC(CCCCCC)C(=O)OCCN(CCOC(=O)C(CCCCCC)CCCCCCCC)C(=O)C(C)CNCCC.Cl (centres unmarked) [Compound 928] | 0.177 | 75.5 | −11.9 | 91.8 | – | – | – | – | –
CCCCCCCCC(CCCCCC)C(=O)OCCN(CCOC(=O)C(CCCCCC)CCCCCCCC)C(=O)CCCN(C)C (centres unmarked) [Compound 931] | 0.117 | 125.8 | −8.457 | 99.9 | – | – | – | – | –
CCCCCCCCCC(CCCCCCCC)C(=O)OCCN(CCOC(=O)C(CCCCCCCC)CCCCCCCCC)C(=O)CCCN(C)C.Cl (centres unmarked) [Compound 933] | 0.301 | 110.9 | −12.2 | 99.2 | – | – | – | – | –
CCCCCCCCC(CCCCCC)C(=O)OCCN(CCOC(=O)C(CCCCCC)CCCCCCCC)C(=O)CCCNCC.Cl (centres unmarked) [Compound 935] | 0.167 | 111.9 | −9.5 | 99.9 | – | – | – | – | –
CCCCCCCCC(CCCCCC)C(=O)OCCN(CCOC(=O)C(CCCCCC)CCCCCCCC)C(=O)CCCN(C)CC.Cl (centres unmarked) [Compound 936] | 0.175 | 110.1 | −10.7 | 99.9 | – | – | – | – | –
CCCCCCCCC(CCCCCC)C(=O)OCCN(CCOC(=O)C(CCCCCC)CCCCCCCC)C(=O)CCCN(CC)CC.Cl (centres unmarked) [Compound 937] | 0.136 | 144 | −9.2 | 99.9 | – | – | – | – | –
CCCCCCCCC(CCCCCC)C(=O)OCCN(CCOC(=O)C(CCCCCC)CCCCCCCC)C(=O)CCCN(C)CCC.Cl (centres unmarked) [Compound 938] | 0.248 | 103.7 | −18.3 | 99.9 | – | – | – | – | –
CCCCCCCCC(CCCCCC)C(=O)OCCN(CCOC(=O)C(CCCCCC)CCCCCCCC)C(=O)CCCN(C)CCC.Cl (centres unmarked) [Compound 939] | 0.172 | 103.5 | −14.9 | 98.5 | – | – | – | – | –
CCCCCCCCC(CCCCCC)C(=O)OCCN(CCOC(=O)C(CCCCCC)CCCCCCCC)C(=O)CN1CCCC1.Cl (centres unmarked) [Compound 960c] | – | – | – | – | 0.079 | 88 | −20.89 | 99.7 | –
CCCCCCCCC(CCCCCC)C(=O)OCCN(CCOC(=O)C(CCCCCC)CCCCCCCC)C(=O)CN1CCCCC1.Cl (centres unmarked) [Compound 960d] | – | – | – | – | 0.133 | 74.5 | −32.3 | 99.5 | –
CCCCCCCCC(CCCCCC)C(=O)OCCN(CCOC(=O)C(CCCCCC)CCCCCCCC)C(=O)CN1CCOCC1.Cl (centres unmarked) [Compound 960e] | – | – | – | – | 0.384 | 73.3 | −45.58 | 99.4 | –
CCCCCCCCC(CCCCCC)C(=O)OCCN(CCOC(=O)C(CCCCCC)CCCCCCCC)C(=O)CN(C)CCO.Cl (centres unmarked) [Compound 960g] | – | – | – | – | 0.254 | 72.6 | −12.1 | 99 | –
CCCCCCCC(CCCCCCC)C(=O)OCCN(CCOC(=O)C(CCCCCCC)CCCCCCC)C(=O)CN(C)C.Cl [Compound 962] | – | – | – | – | 0.132 | 74.9 | −30.33 | 99.6 | –

Compound | PDI [1, 7] | Size ([1]; Table 8, hEPO mRNA, N:P 6) [nm] | Zeta potential ([2]; Table 8) [mV] | Encapsulation Efficiency % [3, 7] [%] | PDI [1, 8] | Size ([1]; Table 9, hEPO mRNA, N:P 6) [nm] | Zeta potential ([2]; Table 9) [mV] | Encapsulation Efficiency % [3, 8] [%] | other results
CCCCCCCCCC(CCCCCCCCC)C(=O)OCCN(CCOC(=O)C(CCCCCCCCC)CCCCCCCCC)C(=O)CN(C)C.Cl [Compound 963] | – | – | – | – | 0.447 | 76.1 | −41.21 | 99.2 | –
CCCCCCCCC(CCCCCC)C(=O)OCCN(CCOC(=O)C(CCCCCC)CCCCCCCC)C(=O)CNC.Cl (centres unmarked) [Compound 964] | – | – | – | – | 0.317 | 73.9 | −26.13 | 99.3 | –
CCCCCCCCC(CCCCCC)C(=O)OCCN(CCOC(=O)C(CCCCCC)CCCCCCCC)C(=O)CNCC.Cl (centres unmarked) [Compound 965] | – | – | – | – | 0.216 | 76.3 | −14.27 | 98.6 | –
CCCCCCCCC(CCCCCC)C(=O)OCCN(CCOC(=O)C(CCCCCC)CCCCCCCC)C(=O)CN(C)CC.Cl (centres unmarked) [Compound 966] | – | – | – | – | 0.076 | 89.5 | −36.65 | 97.8 | –
CCCCCCCCC(CCCCCC)C(=O)OCCN(CCOC(=O)C(CCCCCC)CCCCCCCC)C(=O)CN(CC)CC.Cl (centres unmarked) [Compound 967] | – | – | – | – | 0.101 | 82.1 | −21.99 | 97.9 | –
CCCCCCCCC(CCCCCC)C(=O)OCCN(CCOC(=O)C(CCCCCC)CCCCCCCC)C(=O)CNCCC.Cl (centres unmarked) [Compound 968] | – | – | – | – | 0.368 | 76.7 | −13.15 | 98.2 | –
CCCCCCCCC(CCCCCC)C(=O)OCCN(CCOC(=O)C(CCCCCC)CCCCCCCC)C(=O)CN(C)CCC.Cl (centres unmarked) [Compound 969] | – | – | – | – | 0.15 | 70 | −28.83 | 99.4 | –
CCCCCCCCC(CCCCCC)C(=O)OCCN(CCOC(=O)C(CCCCCC)CCCCCCCC)C(=O)CCCN(CC)CCC.Cl (centres unmarked) [Compound 980] | 0.159 | 90.1 | −18.1 | 94.9 | – | – | – | – | –
CCCCCCCCC(CCCCCC)C(=O)OCCN(CCOC(=O)C(CCCCCC)CCCCCCCC)C(=O)CCCN1CCCC1.Cl (centres unmarked) [Compound 982] | 0.081 | 120.5 | −14.2 | 99.9 | – | – | – | – | –
CCCCCCCCC(CCCCCC)C(=O)OCCN(CCOC(=O)C(CCCCCC)CCCCCCCC)C(=O)CCCN1CCCCC1.Cl (centres unmarked) [Compound 983] | 0.114 | 90.4 | −15.9 | 97.1 | – | – | – | – | –
CCCCCCCCC(CCCCCC)C(=O)OCCN(CCOC(=O)C(CCCCCC)CCCCCCCC)C(=O)CCCN(C)CCO.Cl (centres unmarked) [Compound 986] | 0.088 | 112.9 | −8.2 | 99.9 | – | – | – | – | –
CCCCCCCCC(CCCCCC)C(=O)OCCN(CCOC(=O)C(CCCCCC)CCCCCCCC)C(=O)C(C)CCN(C)C (centres unmarked) [Compound 987a] | – | – | – | – | – | – | – | – | PDI [1]: 0.104; Size (nm) [1]: 73.2 nm; Zeta potential (mV) [2, 9]: −3.5 mV; Encapsulation Efficiency % [3]: 95.7%
CCCCCCCC(CCCCCCC)C(=O)OCCN(CCOC(=O)C(CCCCCCC)CCCCCCC)C(=O)C(C)CCN(C)C.Cl (centres unmarked) [Compound 987b] | – | – | – | – | – | – | – | – | PDI [1, 10]: 0.102; Size (nm) [1, 10]: 74.1 nm; Zeta potential (mV) [2, 9]: −2.1 mV; Encapsulation Efficiency % [3, 10]: 93.6%
CCCCCCCCCC(CCCCCCCCC)C(=O)OCCN(CCOC(=O)C(CCCCCCCCC)CCCCCCCCC)C(=O)C(C)CCN(C)C.Cl (centres unmarked) [Compound 987c] | – | – | – | – | – | – | – | – | PDI [1, 10]: 0.066; Size (nm) [1, 10]: 72.0 nm; Zeta potential (mV) [2, 9]: −6.6 mV; Encapsulation Efficiency % [3, 10]: 98.0%
CCCCCCCCC(CCCCCC)C(=O)OCCN(CCOC(=O)C(CCCCCC)CCCCCCCC)C(=O)C(C)CCNC.Cl (centres unmarked) [Compound 987d] | – | – | – | – | – | – | – | – | PDI [1, 10]: 0.092; Size (nm) [1, 10]: 62.9 nm; Zeta potential (mV) [2, 9]: −1.5 mV; Encapsulation Efficiency % [3, 10]: 99.2%
CCCCCCCCC(CCCCCC)C(=O)OCCN(CCOC(=O)C(CCCCCC)CCCCCCCC)C(=O)C(C)CCNCC.Cl (centres unmarked) [Compound 987e] | – | – | – | – | – | – | – | – | PDI [1, 10]: 0.110; Size (nm) [1, 10]: 70.5 nm; Zeta potential (mV) [2, 9]: 0.8 mV; Encapsulation Efficiency % [3, 10]: 99.4%
CCCCCCCCC(CCCCCC)C(=O)OCCN(CCOC(=O)C(CCCCCC)CCCCCCCC)C(=O)C(C)CCN(C)CC.Cl (centres unmarked) [Compound 987f] | – | – | – | – | – | – | – | – | PDI [1, 10]: 0.072; Size (nm) [1, 10]: 79.4 nm; Zeta potential (mV) [2, 9]: −2.8 mV; Encapsulation Efficiency % [3, 10]: 92.3%
